Source: US20230114728A1 (Venatorx Pharmaceuticals, Inc., priority 2019, published 2023)
≈ marks a conversion by molar mass, not a printed value.

Experiments:
E. coli K12 PBP3 = molecular target: T1, E. coli K12 PBP3 (Escherichia coli, UniProt P0AD68); assay: biochemical; format: binding
T1 construct: made in house
Summary of the method: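 A. baumannii PBP2 (2.5 μM) and PBP3 (0.2 μM) were run in 25 mM Tris pH 8.0 buffer with Tween 20; E. coli PBP3 (1.5 μM) and N. gonorrhoeae PBP2 ([…]) in 50 mM Hepes pH 8.0 buffer.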

P. aeruginosa PBP3 = molecular target: T2, P. aeruginosa PBP3 (Pseudomonas aeruginosa, UniProt G3XD46); assay: Bocillin-FL fluorescence polarization competition binding assay, P. aeruginosa PBP3; conditions: fluorescence polarization competition binding assay using Bocillin-FL
T2 construct: made in house
Summary of the method: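 Inhibitor competition with Bocillin-FL for P. aeruginosa PBP3 was followed by fluorescence polarization on a Cytation3 (BioTek) reader, using g-factor 0.96, 490 nm excitation and 520 nm emission. The enzyme was at 0.75 μM and the probe at 0.1 μM in Hepes/NaCl/glycerol buffer, 80 μl per well. FP was recorded immediately after probe addition for up to 60 minutes. Potency was expressed as EC50, the concentration that reduces bound probe by 50%.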

E. coli 901C = assay: Broth microdilution MIC in CAMHB; format: cell-based; conditions: Escherichia coli; E. coli 901C (hyper-permeable); MHB; read-out: Minimum Inhibitory Concentration, E. coli 901C
Summary of the method: (§1)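 CLSI microdilution; CAMHB; inoculum 2-8×10^5 CFU/mL from 3-5 h 37° C culture; 2-fold compound series; 16-20 h, 37° C; MIC = lowest well without visible growth.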

[1] = test system: K. pneumoniae 848844 producing SHV-11 and KPC-2; assay: Broth microdilution MIC in CAMHB; format: cell-based; conditions: Klebsiella pneumoniae, read-out: Minimum Inhibitory Concentration, K. pneumoniae 848844
Summary of the method: as §1

[2] = test system: K. pneumoniae SI-117 producing VIM-1; assay: Broth microdilution MIC in CAMHB; format: cell-based; conditions: Klebsiella pneumoniae, read-out: Minimum Inhibitory Concentration, K. pneumoniae SI-117
Summary of the method: as §1

[3] = test system: K. pneumoniae UMM producing SHV-5 and KPC-2; assay: Broth microdilution MIC in CAMHB; format: cell-based; conditions: Klebsiella pneumoniae, read-out: Minimum Inhibitory Concentration, K. pneumoniae UMM
Summary of the method: as §1

[4] = test system: P. aeruginosa (ΔmexAB-oprM); assay: Broth microdilution MIC in CAMHB; format: cell-based; conditions: Pseudomonas aeruginosa, read-out: Minimum Inhibitory Concentration, P. aeruginosa ΔmexAB-OprM
Summary of the method: as §1

P. aeruginosa ATCC 27853 = assay: Broth microdilution MIC in CAMHB; format: cell-based; conditions: Pseudomonas aeruginosa, ATCC27853; MHB; read-out: Minimum Inhibitory Concentration, P. aeruginosa ATCC 27853
Summary of the method: as §1

P. aeruginosa ATCC 35151 = assay: Broth microdilution MIC in CAMHB; format: cell-based; conditions: Pseudomonas aeruginosa, ATCC35151; MHB; hyper-permeable strain; read-out: Minimum Inhibitory Concentration, P. aeruginosa ATCC 35151
Summary of the method: as §1

T2 sequence (G3XD46 whole entry): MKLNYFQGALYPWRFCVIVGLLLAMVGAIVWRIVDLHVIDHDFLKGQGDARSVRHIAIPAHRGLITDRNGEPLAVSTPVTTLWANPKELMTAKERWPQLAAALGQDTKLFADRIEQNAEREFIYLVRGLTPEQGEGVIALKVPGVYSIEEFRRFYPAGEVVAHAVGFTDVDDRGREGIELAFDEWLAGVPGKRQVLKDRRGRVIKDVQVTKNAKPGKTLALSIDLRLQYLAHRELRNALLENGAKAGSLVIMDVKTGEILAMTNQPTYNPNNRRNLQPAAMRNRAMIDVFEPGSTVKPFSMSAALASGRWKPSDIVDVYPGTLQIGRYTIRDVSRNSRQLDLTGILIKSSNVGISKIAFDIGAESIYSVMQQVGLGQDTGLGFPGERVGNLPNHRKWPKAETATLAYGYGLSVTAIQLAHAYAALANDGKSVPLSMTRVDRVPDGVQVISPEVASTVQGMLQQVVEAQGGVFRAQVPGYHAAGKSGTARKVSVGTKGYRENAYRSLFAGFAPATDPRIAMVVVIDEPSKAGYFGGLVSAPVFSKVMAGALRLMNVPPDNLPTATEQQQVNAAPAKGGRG
T1 sequence (P0AD68 1-577): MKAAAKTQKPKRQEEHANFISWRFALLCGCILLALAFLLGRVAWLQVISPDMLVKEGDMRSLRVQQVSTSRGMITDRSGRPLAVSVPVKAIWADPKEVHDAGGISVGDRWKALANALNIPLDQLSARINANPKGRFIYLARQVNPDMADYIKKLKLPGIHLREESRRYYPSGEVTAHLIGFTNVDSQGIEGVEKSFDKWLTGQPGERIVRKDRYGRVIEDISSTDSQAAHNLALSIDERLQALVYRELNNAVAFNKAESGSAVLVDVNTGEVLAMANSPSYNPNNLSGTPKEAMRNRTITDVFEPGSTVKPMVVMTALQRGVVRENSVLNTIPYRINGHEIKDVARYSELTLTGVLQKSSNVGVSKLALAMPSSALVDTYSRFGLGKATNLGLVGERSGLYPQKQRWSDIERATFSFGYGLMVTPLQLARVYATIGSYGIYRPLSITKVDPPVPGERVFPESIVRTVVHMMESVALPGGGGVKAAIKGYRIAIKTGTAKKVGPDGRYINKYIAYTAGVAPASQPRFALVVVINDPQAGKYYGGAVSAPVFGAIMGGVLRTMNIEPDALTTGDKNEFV

Row | Structure (SMILES) | EC50 (E. coli K12 PBP3) | P. aeruginosa PBP3 Potency (P. aeruginosa PBP3) | MIC (E. coli 901C) | MIC [1] | MIC [2] | MIC [3] | MIC [4] | MIC (P. aeruginosa ATCC 27853) | MIC (P. aeruginosa ATCC 35151)
1 | CCN1CCN(C(=O)NC(C(=O)N[C@H]2Cc3cccc(C(=O)O)c3OB2O)c2ccc(N)c(F)c2)C(=O)C1=O (stereo partly drawn) [Example 50, (3R)-3-(2-(4-amino-3-fluorophenyl)-2-(4-ethyl-2,3-dioxopiperazine-1-carboxamido)acetamido)-2-hydroxy-3,4-dihydro-2H-benzo[e][1,2]oxaborinine-8-carboxylic acid] | < 30 µM | D (D represents a potency <10 μM) | < 0.25 µg/mL | > 128 µg/mL | > 128 µg/mL | 32 to 64 µg/mL (≈ 59.1 to 118 µM) | 2 to 4 µg/mL (≈ 3.69 to 7.39 µM) | > 128 µg/mL | 0.5 to 1 µg/mL (≈ 0.924 to 1.85 µM)
2 | N=C(N)NCCN1CCN(C(=O)NC(C(=O)N[C@H]2Cc3ccc(F)c(C(=O)O)c3OB2O)c2ncc(O)cc2F)C(=O)C1=O (stereo partly drawn) [Example 51, (3R)-7-fluoro-3-(2-(3-fluoro-5-hydroxypyridin-2-yl)-2-(4-(2-guanidinoethyl)-2,3-dioxopiperazine-1-carboxamido)acetamido)-2-hydroxy-3,4-dihydro-2H-benzo[e][1,2]oxaborinine-8-carboxylic acid] | 30 to 500 µM | D (D represents a potency <10 μM) | 2 to 4 µg/mL (≈ 3.23 to 6.47 µM) | 32 to 64 µg/mL (≈ 51.8 to 104 µM) | 32 to 64 µg/mL (≈ 51.8 to 104 µM) | 8 to 16 µg/mL (≈ 12.9 to 25.9 µM) | 8 to 16 µg/mL (≈ 12.9 to 25.9 µM) | > 128 µg/mL | 0.5 to 1 µg/mL (≈ 0.809 to 1.62 µM)
3 | N=C(N)NC(C(=O)N[C@H]1Cc2ccc(F)c(C(=O)O)c2OB1O)c1ncc(O)cc1F (stereo partly drawn) [Example 52, (3R)-7-fluoro-3-(2-(3-fluoro-5-hydroxypyridin-2-yl)-2-guanidinoacetamido)-2-hydroxy-3,4-dihydro-2H-benzo[e][1,2]oxaborinine-8-carboxylic acid] | > 500 µM | A (A represents a potency of >500 μM) | > 128 µg/mL | > 128 µg/mL | > 128 µg/mL | > 128 µg/mL | > 128 µg/mL | > 128 µg/mL | > 128 µg/mL
4 | CCN1CCN(C(=O)NC(C(=O)N[C@H]2Cc3cccc(C(=O)O)c3OB2O)c2cccc(O)c2)C(=O)C1=O (stereo partly drawn) [Example 68, (3R)-3-(2-(4-ethyl-2,3-dioxopiperazine-1-carboxamido)-2-(3-hydroxyphenyl)acetamido)-2-hydroxy-3,4-dihydro-2H-benzo[e][1,2]oxaborinine-8-carboxylic acid] | 30 to 500 µM | D (D represents a potency <10 μM) | < 0.25 µg/mL | > 128 µg/mL | 32 to 64 µg/mL (≈ 61 to 122 µM) | 32 to 64 µg/mL (≈ 61 to 122 µM) | 2 to 4 µg/mL (≈ 3.81 to 7.63 µM) | > 128 µg/mL | 0.5 to 1 µg/mL (≈ 0.954 to 1.91 µM)
5 | CCN1CCN(C(=O)NC(C(=O)N[C@H]2Cc3cccc(C(=O)O)c3OB2O)c2ccc(O)cc2O)C(=O)C1=O (stereo partly drawn) [Example 69, (3R)-3-(2-(2,4-dihydroxyphenyl)-2-(4-ethyl-2,3-dioxopiperazine-1-carboxamido)acetamido)-2-hydroxy-3,4-dihydro-2H-benzo[e][1,2]oxaborinine-8-carboxylic acid] | < 30 µM | C (C represents a potency between 10 and 30 μM) | < 0.25 µg/mL | 32 to 64 µg/mL (≈ 59.2 to 118 µM) | 32 to 64 µg/mL (≈ 59.2 to 118 µM) | 32 to 64 µg/mL (≈ 59.2 to 118 µM) | 32 to 64 µg/mL (≈ 59.2 to 118 µM) | > 128 µg/mL | 8 to 16 µg/mL (≈ 14.8 to 29.6 µM)
6 | CCN1CCN(C(=O)NC(C(=O)N[C@H]2Cc3cccc(C(=O)O)c3OB2O)c2ccc(O)cc2OC)C(=O)C1=O (stereo partly drawn) [Example 70, (3R)-3-(2-(4-ethyl-2,3-dioxopiperazine-1-carboxamido)-2-(4-hydroxy-2-methoxyphenyl)acetamido)-2-hydroxy-3,4-dihydro-2H-benzo[e][1,2]oxaborinine-8-carboxylic acid] | 30 to 500 µM | D (D represents a potency <10 μM) | 0.5 to 1 µg/mL (≈ 0.902 to 1.8 µM) | > 128 µg/mL | > 128 µg/mL | > 128 µg/mL | 8 to 16 µg/mL (≈ 14.4 to 28.9 µM) | > 128 µg/mL | 8 to 16 µg/mL (≈ 14.4 to 28.9 µM)
7 | CCN1CCN(C(=O)NC(C(=O)N[C@H]2Cc3cccc(C(=O)O)c3OB2O)c2cccc(N)c2)C(=O)C1=O (stereo partly drawn) [Example 72, (3R)-3-(2-(3-aminophenyl)-2-(4-ethyl-2,3-dioxopiperazine-1-carboxamido)acetamido)-2-hydroxy-3,4-dihydro-2H-benzo[e][1,2]oxaborinine-8-carboxylic acid] | < 30 µM | D (D represents a potency <10 μM) | < 0.25 µg/mL | > 128 µg/mL | > 128 µg/mL | 32 to 64 µg/mL (≈ 61.1 to 122 µM) | 8 to 16 µg/mL (≈ 15.3 to 30.6 µM) | > 128 µg/mL | 2 to 4 µg/mL (≈ 3.82 to 7.64 µM)
8 | CCN1CCN(C(=O)NC(C(=O)N[C@H]2Cc3cccc(C(=O)O)c3OB2O)c2cccc(NC(=O)c3ccc(O)c(O)c3Cl)c2)C(=O)C1=O (stereo partly drawn) [Example 73, (3R)-3-(2-(3-(2-chloro-3,4-dihydroxybenzamido)phenyl)-2-(4-ethyl-2,3-dioxopiperazine-1-carboxamido)acetamido)-2-hydroxy-3,4-dihydro-2H-benzo[e][1,2]oxaborinine-8-carboxylic acid] | < 30 µM | D (D represents a potency <10 μM) | < 0.25 µg/mL | 8 to 16 µg/mL (≈ 11.5 to 23.1 µM) | 8 to 16 µg/mL (≈ 11.5 to 23.1 µM) | 0.5 to 1 µg/mL (≈ 0.721 to 1.44 µM) | 0.5 to 1 µg/mL (≈ 0.721 to 1.44 µM) | 2 to 4 µg/mL (≈ 2.88 to 5.76 µM) | 0.5 to 1 µg/mL (≈ 0.721 to 1.44 µM)
9 | CCN1CCN(C(=O)NC(C(=O)N[C@H]2Cc3cccc(C(=O)O)c3OB2O)c2ccc(O)c(NC(=O)c3ccc(O)c(O)c3Cl)c2)C(=O)C1=O (stereo partly drawn) [Example 74, (3R)-3-(2-(3-(2-chloro-3,4-dihydroxybenzamido)-4-hydroxyphenyl)-2-(4-ethyl-2,3-dioxopiperazine-1-carboxamido)acetamido)-2-hydroxy-3,4-dihydro-2H-benzo[e][1,2]oxaborinine-8-carboxylic acid] | < 30 µM | D (D represents a potency <10 μM) | < 0.25 µg/mL | > 128 µg/mL | > 128 µg/mL | > 128 µg/mL | 0.5 to 1 µg/mL (≈ 0.704 to 1.41 µM) | 8 to 16 µg/mL (≈ 11.3 to 22.5 µM) | 0.5 to 1 µg/mL (≈ 0.704 to 1.41 µM)
10 | CCN1CCN(C(=O)NC(C(=O)N[C@H]2Cc3cccc(C(=O)O)c3OB2O)c2cccc([N+](=O)[O-])c2)C(=O)C1=O (stereo partly drawn) [Example 75, (3R)-3-(2-(4-ethyl-2,3-dioxopiperazine-1-carboxamido)-2-(3-nitrophenyl)acetamido)-2-hydroxy-3,4-dihydro-2H-benzo[e][1,2]oxaborinine-8-carboxylic acid] | 30 to 500 µM | D (D represents a potency <10 μM) | 0.5 to 1 µg/mL (≈ 0.904 to 1.81 µM) | > 128 µg/mL | > 128 µg/mL | > 128 µg/mL | 32 to 64 µg/mL (≈ 57.8 to 116 µM) | > 128 µg/mL | 8 to 16 µg/mL (≈ 14.5 to 28.9 µM)
11 | CCN1CCN(C(=O)NC(C(=O)N[C@H]2Cc3cccc(C(=O)O)c3OB2O)c2cccc(NS(C)(=O)=O)c2)C(=O)C1=O (stereo partly drawn) [Example 76, (3R)-3-(2-(4-ethyl-2,3-dioxopiperazine-1-carboxamido)-2-(3-(methylsulfonamido)phenyl)acetamido)-2-hydroxy-3,4-dihydro-2H-benzo[e][1,2]oxaborinine-8-carboxylic acid] | < 30 µM | D (D represents a potency <10 μM) | < 0.25 µg/mL | > 128 µg/mL | > 128 µg/mL | 32 to 64 µg/mL (≈ 53.2 to 106 µM) | 8 to 16 µg/mL (≈ 13.3 to 26.6 µM) | > 128 µg/mL | 2 to 4 µg/mL (≈ 3.33 to 6.65 µM)
12 | CCN1CCN(C(=O)NC(C(=O)N[C@H]2Cc3cccc(C(=O)O)c3OB2O)c2cc(O)ccc2O)C(=O)C1=O (stereo partly drawn) [Example 77, (3R)-3-(2-(2,5-dihydroxyphenyl)-2-(4-ethyl-2,3-dioxopiperazine-1-carboxamido)acetamido)-2-hydroxy-3,4-dihydro-2H-benzo[e][1,2]oxaborinine-8-carboxylic acid] | 30 to 500 µM | B (B represents a potency between 30 μM and 500 μM inclusive) | 8 to 16 µg/mL (≈ 14.8 to 29.6 µM) | > 128 µg/mL | > 128 µg/mL | > 128 µg/mL | > 128 µg/mL | > 128 µg/mL | 8 to 16 µg/mL (≈ 14.8 to 29.6 µM)
